In patent publication US20120142027A1, “Compositions and Methods for Modulating the Immune Response and Identifying Immunomodulators” (WHITEHEAD INSTITUTE FOR BIOMEDICAL RESEARCH, priority 2007, published 2012):

Tests used:
[1] = tested on: RAW macrophages stably expressing wild type UNC93B-HA; experiment: Endo H sensitivity of UNC93B-HA and Class I MHC in RAW macrophages; type: cell-based, mouse; settings: Brefeldin A 10 μg/ml, present throughout pulse, chase and CpG stimulation
Protocol: FIG. 14. The interaction between UNC93B and TLRs maintains in dendritic cells stimulated with TLR agonists. (a) BM-DCs were metabolically labeled with ^35S-methionine/cysteine and stimulated with TLR ligands for 1 h (LPS: 1 μg/ml, poly (I:C): 50 μg/ml, Imiquimod: 2.5 CpG DNA: 2.5 μM). Endogenous UNC93B and TLRs were immunoprecipitated with an anti-UNC93B antibody, digested with endoglycosidase H (Endo H), subjected to 10% SDS-PAGE and visualized by fluorography. TLRs coimmunoprecipitated with UNC93B are denoted by open triangles. Interaction between TLRs and UNC93B was maintained even after TLR stimulation with various agonists. […] NRS; normal rabbit serum (b) RAW macrophages stably expressing wild type UNC93B-HA were exposed to Brefeldin A (10 μg/ml) for 2 h, metabolically labeled with ^35S-methionine/cysteine for 30 min (pulse), incubated in normal medium for 2 h (chase) followed by 2 h stimulation with CpG (+CpG) or were left unstimulated (−CpG). All incubations (pulse, chase, CpG stimulation) were done in the continuous presence of Brefeldin A. As a control, cells were not treated with Brefeldin A (−BA). Cells were lysed in RIPA buffer and UNC93B-HA and Class I MHC products were recovered from cell lysates by immunoprecipitation with an anti-HA (upper panel) or Class I antibody (lower panel), respectively. […]

TLR signaling = settings: pretreatment of wild type cells; cited from earlier work
[2] = tested on: UNC93B/TLR interaction in A20 B cells; experiment: Coimmunoprecipitation of TLRs with UNC93B-HA after stimulation with TLR agonists; type: cell-based, mouse; settings: imiquimod 10 μM, gardiquimod 1 μM, CpG DNA 1 μM, 1 h
Protocol: Stimulation with TLR agonists. A20 B cells either not transduced or stably transduced with UNC93B-HA WT or H412R were metabolically labeled with ^35S-methionine/cysteine for 4 h (pulse). TLR agonists were added to the cells for the final hour of the pulse at the following concentrations: imiquimod: 10 μM, gardiquimod: 1 μM, CpG DNA: 1 μM.
Pulse-chase, immunoprecipitation and Endo H/F assay. In brief, cells were starved for methionine and cysteine in Met/Cys-free DMEM (starvation medium) for 30 min, pulsed for different time periods (see figure legends) with ^35S-labeled methionine/cysteine (Perkin Elmer) in starvation medium supplemented with dialyzed IFS, and chased with an excess of non-radioactive amino acids in regular DMEM for various time periods (see figure legends). Cells were lysed in either of the following lysis buffers supplemented with the complete protease inhibitors (Roche) as indicated in the figure legends: RIPA (20 mM Tris-HCl, pH 7.4, 1 mM EDTA, 100 mM NaCl, 1% Triton X-100, 0.5% sodium deoxycholate, 0.1% SDS), or buffer containing 50 mM Tris-HCl, pH 7.4, 150 mM NaCl, 5 mM EDTA with either 1% NP-40 or 1% digitonin as detergent. Lysates were equalized for incorporation of radioactive material with ^35S counts in the trichloroacetic acid precipitate and immunoprecipitated with the indicated antibodies. […]

BM-DCs [3] = experiment: TNF production in BM-DCs stimulated with TLR agonists (intracellular TNF, flow cytometry); type: cell-based, mouse; settings: BM-DCs from 3d (UNC93B H412R) mice; 100 nM imiquimod or 1 μM CpG, 4 h, with 10 μg/ml brefeldin A
Protocol: TNF assay. Five days old BM-DCs expressing either wild type or mutant UNC93B-GFP were stimulated with 1 μg/ml LPS, 100 nM imiquimod or 1 μM CpG for 4 hours in the presence of 10 μg/ml brefeldin A. The cells were fixed with 4% formaldehyde for 10 min at RT and permeabilized with 0.5% saponin in FACS buffer (PBS with 2% BSA and 0.05% sodium azide) for 10 min. After blocking with anti-CD16 antibody (clone 2.4G2) for 30 min, cells were stained with PE-conjugated anti-CD11c (clone HL3) and Alexa Fluor 647-conjugated anti-TNF (clone MP6-XT22) antibodies for 30 min. Fluorescence intensity was measured with LSR I flow cytometer (BD biosciences). Data were collected with CellQuest (BD biosciences) and analyzed with FlowJo (TriStar).

BM-DCs [4] = experiment: Surface MHC class II level on BM-DCs by flow cytometry; type: cell-based, mouse; settings: B6 or 3d BM-DCs; 1 μg/ml LPS, 1 μM CpG or 1 μM imiquimod, 16 h
Protocol: (b) BM-DCs from B6 and 3d mice were fixed, permeablized and stained for MHC class II (green) and Lamp1 (red). […] White dashed lines mark the cell boundary. […] (d) B6 or 3d BM-DCs were stimulated with 1 μg/ml LPS or 1 μM CpG for 16 h, fixed, permeabilized and stained for MHC class II and Lamp1. […] Scale bars; 10 μm

TLR7 = biological target: T1, TLR7 (Mus musculus, UniProt P58681); experiment: Live cell imaging of TLR7-YFP localization in BM-DCs; type: cell-based; settings: wild type (B6) BM-DCs, 1 μM imiquimod, 2 h
T1 construct: expressed in transfected cells; host or cells: bone marrow-derived dendritic cells from B6 or 3d mice, retroviral transduction (pMXrmv5-TLR7-YFP)
T1 sequence (P58681 27-1050): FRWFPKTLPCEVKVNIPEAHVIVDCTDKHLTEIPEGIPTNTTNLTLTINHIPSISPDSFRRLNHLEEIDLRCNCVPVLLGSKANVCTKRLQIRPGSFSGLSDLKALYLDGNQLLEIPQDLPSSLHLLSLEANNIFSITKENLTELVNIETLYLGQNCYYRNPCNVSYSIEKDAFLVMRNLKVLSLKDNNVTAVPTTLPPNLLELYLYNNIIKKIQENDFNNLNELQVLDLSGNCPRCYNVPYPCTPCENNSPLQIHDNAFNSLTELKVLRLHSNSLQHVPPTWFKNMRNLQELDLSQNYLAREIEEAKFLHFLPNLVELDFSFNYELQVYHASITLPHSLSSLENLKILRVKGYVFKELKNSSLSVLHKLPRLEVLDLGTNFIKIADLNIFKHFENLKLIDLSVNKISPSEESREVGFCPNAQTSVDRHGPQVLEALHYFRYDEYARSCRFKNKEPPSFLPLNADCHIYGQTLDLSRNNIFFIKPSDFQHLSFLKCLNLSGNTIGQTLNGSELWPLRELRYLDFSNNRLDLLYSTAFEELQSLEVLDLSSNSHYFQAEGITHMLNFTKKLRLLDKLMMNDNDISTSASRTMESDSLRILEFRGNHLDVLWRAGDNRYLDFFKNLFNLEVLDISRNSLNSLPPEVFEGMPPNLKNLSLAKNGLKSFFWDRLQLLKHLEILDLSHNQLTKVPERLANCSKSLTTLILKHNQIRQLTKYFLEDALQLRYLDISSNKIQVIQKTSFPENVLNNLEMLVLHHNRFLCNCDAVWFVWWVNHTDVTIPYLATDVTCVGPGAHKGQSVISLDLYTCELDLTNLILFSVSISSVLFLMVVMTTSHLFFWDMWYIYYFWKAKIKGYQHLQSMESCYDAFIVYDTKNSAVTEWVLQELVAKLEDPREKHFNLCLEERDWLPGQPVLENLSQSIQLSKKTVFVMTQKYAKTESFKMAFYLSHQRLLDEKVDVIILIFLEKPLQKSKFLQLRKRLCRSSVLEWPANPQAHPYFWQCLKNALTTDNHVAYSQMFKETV
Protocol: Image acquisition and data analysis. For live cell imaging, cells were grown in 8 well-chambered coverglasses (LAB-TEK). During imaging, cells were maintained in phenol red-free DMEM supplemented with 25 mM Hepes (pH 7.4) at 37° C. with 5% supplemental CO2 in room air using a Solent scientific chamber. Images were acquired using a spinning disk confocal microscope equipped with a 3 watt water-cooled 5 line laser (Prairie Technologies), a Nikon TE2000-U inverted microscope, acousto-optic tunable filters (AOTF), a Yokagawa QLC-100 spinning disk confocal head, a Prior x,y stage controller, a Piezo z stage and Hamamatsu Orca ER and EM CCD cameras. All images were taken with a Nikon 100X 1.4NA DIC lens. Metamorph (Molecular Devices) was used for image acquisition and figures were constructed using Adobe Photoshop and Illustrator. Quantitative colocalization analyses were performed using applications ‘Measure Colocalization’ and ‘Correlation Plot’ in the MetaMorph software (Molecular Devices).

Compound: C[C@H]1CCC/C=C/[C@@H]2C[C@H](O)C[C@H]2[C@H](O)/C=C/C(=O)O1 [Brefeldin A]
- Endo H resistance of Class I MHC and UNC93B [1]: both Class I MHC and UNC93B acquire partially EndoH resistant hybrid type oligosaccharides

Compound: CO/C1=C\C(C)=C\[C@@H](C)[C@@H](O)[C@@H](C)C/C(C)=C/C=C/[C@H](OC)[C@@H]([C@@H](C)[C@@H](O)[C@H](C)[C@@]2(O)C[C@@H](O)[C@H](C)[C@@H](C(C)C)O2)OC1=O [bafilomycin]
- effect on TLR signaling compared with the defects of 3d cells (TLR signaling): mimicked

Compound: CCN(CC)CCCC(C)Nc1ccnc2cc(Cl)ccc12 (centres unmarked) [chloroquine]
- effect on TLR signaling compared with the defects of 3d cells (TLR signaling): mimicked

Compound: CCNCc1nc2c(N)nc3ccccc3c2n1CC(C)(C)O [gardiquimod]
- levels of coimmunoprecipitated TLR polypeptides after TLR activation versus unstimulated cells [2]: No significant changes

Compound: CC(C)Cn1cnc2c(N)nc3ccccc3c21 [imiquimod, Imiquimod]
- TNF production (BM-DCs [3]): failed to produce TNF
- surface level of MHC class II (BM-DCs [4]): failed to increase the MHC class II level in 3d cells
- levels of coimmunoprecipitated TLR polypeptides after TLR activation versus unstimulated cells [2]: No significant changes
- localization of TLR7 after stimulation (TLR7): trafficking of TLR7 from the ER to endolysosomes was also observed
